Here are results for four substances from patent publication US10406230B2, “Exendin-4 analogue pegylated with polyethylene glycol or derivative thereof, preparation method thereof, and pharmaceutical composition for preventing or treating diabetes, containing same as active ingredient” (priority 2011, dated 2019).

Test [1] deals with Type 2 diabetic C57BL/6 db/db mice. Description: Low blood glucose sustainability in non-fasting type 2 diabetic mice. It counts as in vivo. As to conditions: 25 nmol/kg intraperitoneal. As for the experimental part:
The following experiment was performed to evaluate low blood glucose sustainability of C40 site specific PEG bound exendin-4 composition according to the present invention in Type 2 diabetic mice.
Type 2 diabetic C57BL/6 db/db mice (male, 4-5 weeks old, Central Lab. Animal Inc.) were used, and animals were exposed to light at 12 hours cycle and were grown after having stabilized two week by allowing free intake of foods and water. The experimental animals were managed following the guideline of National Institute of Health (NIH) and authorized by Institutional Animal Care and Use Committee of Sungkyunkwan University, and the experiment was performed humanely.
C40-PEG5K-Ex4 (linear), C40-PEG20K-Ex4 (linear), C40-PEG20K-Ex4 (branch), C40-PEG23K-Ex4 (trimer) and C40-PEG50K-Ex4 (trimer) prepared from the Example 1 to 5 and Lys^27-PEG20K-Ex4 prepared in Comparative example 1b were intraperitoneally injected with 25 nmol/kg dose to male db/db mice (6-7 weeks old), blood was collected from tail vein of mice following the float time: 0, 0.5, 1, 2, 3, 4, 6, 8, 12, 24, 36, 48, 60, 72, 96 hours and blood glucose concentration was measured with ACCU-CHEK Sensor (Roche Diagnostics Corp., USA). Afterwards, the low blood glucose sustaining time (blood glucose level<8.35 mmol/l (150 mg/dL)) was additionally measured and shown in Table 4 and FIG. 12. In the present experiment, exendin-4 was used as the control group.

Another test deals with T1, GLP-1 receptor (GLP-1R) (Rattus norvegicus, UniProt P32301).
T1 construct: Islet cells (RIN-m5F, ATCC, Manassas, Va.) expressing vast quantity of GLP-1 receptor (GLP-1R) were inoculated in 12-wells plates; host or cells: RIN-m5F
T1 sequence (P32301 22-463): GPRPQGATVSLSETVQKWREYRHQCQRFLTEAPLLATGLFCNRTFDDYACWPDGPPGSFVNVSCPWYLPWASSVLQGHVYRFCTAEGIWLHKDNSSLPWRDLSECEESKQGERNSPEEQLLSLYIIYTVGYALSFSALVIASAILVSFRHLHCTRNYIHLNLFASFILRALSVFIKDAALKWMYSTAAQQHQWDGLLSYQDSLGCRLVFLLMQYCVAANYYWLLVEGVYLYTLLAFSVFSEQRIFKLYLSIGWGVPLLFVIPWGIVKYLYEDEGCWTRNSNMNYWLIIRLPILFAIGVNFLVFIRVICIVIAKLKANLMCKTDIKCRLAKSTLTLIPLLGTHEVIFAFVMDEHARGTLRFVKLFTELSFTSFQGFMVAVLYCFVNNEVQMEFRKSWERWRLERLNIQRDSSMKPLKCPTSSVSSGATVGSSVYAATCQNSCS
Description: RIN-m5F cell receptor binding affinity (I-125 exendin-4 displacement). As to the method:
Thorough washing was done with PBS including […] bovine serum albumin after two hours.

pIC50: −log10 of the molar value.

Take “Example 2: exendin-4-Cys (SEQ ID NO: 1) bound at C40 with linear 20 kDa mPEG-MAL”: the “low blood glucose sustaining time (time required for blood glucose level increasing back to 8.35 mmol/l)” value in test [1] (blood glucose level<8.35 mmol/l (150 mg/dL)) worked out at 23.2 h. Besides, the “Blood glucose level (average)” value is 24.28 mmol/L in test [1] (time 0 h); 7.96 mmol/L in test [1] (time 0.5 h); 6.13 mmol/L in test [1] (time 1 h); 5.29 mmol/L in test [1] (time 2 h); 4.18 mmol/L in test [1] (time 3 h); 4.34 mmol/L in test [1] (time 4 h). The “Blood glucose level (average)” value was 4.9 mmol/L in test [1] (time 6 h); 4.57 mmol/L in test [1] (time 8 h); 5.86 mmol/L in test [1] (time 12 h); 8.54 mmol/L in test [1] (time 24 h); 11.47 mmol/L in test [1] (time 36 h); 15.34 mmol/L in test [1] (time 48 h). The “Blood glucose level (average)” value in test [1] (time 60 h) came to 20.45 mmol/L; in test [1] (time 72 h), 23.02 mmol/L.

On to “1b (Lys^27-PEG20K-Ex4): exendin-4 (SEQ ID NO: 2) PEGylated at Lys27 amine with 20 kDa mPEG-SPA [reference compound]”, for which the “Blood glucose level (average)” value is 24.13 mmol/L in test [1] (time 0 h); 7.97 mmol/L in test [1] (time 0.5 h); 6.56 mmol/L in test [1] (time 1 h); 5.24 mmol/L in test [1] (time 2 h); 4.22 mmol/L in test [1] (time 3 h); 4.29 mmol/L in test [1] (time 4 h). For the same substance, the “Blood glucose level (average)” value in test [1] (time 6 h) amounted to 4.85 mmol/L; in test [1] (time 8 h) it was 5.13 mmol/L; in test [1] (time 12 h) it was 5.40 mmol/L; in test [1] (time 24 h), 12.98 mmol/L; in test [1] (time 36 h) it was 17.34 mmol/L; in test [1] (time 48 h) it was 20.45 mmol/L. In test [1] (time 60 h), the “Blood glucose level (average)” value came out at 23.02 mmol/L.

For “Example 3: exendin-4-Cys (SEQ ID NO: 1) bound at C40 with branch type 20 kDa mPEG-MAL”, the “Blood glucose level (average)” value in test [1] (time 0 h) was 24.44 mmol/L; in test [1] (time 0.5 h) it was 7.86 mmol/L; in test [1] (time 1 h), 6.89 mmol/L; in test [1] (time 2 h), 5.04 mmol/L; in test [1] (time 3 h), 4.15 mmol/L; in test [1] (time 4 h) it was 4.66 mmol/L. Moreover, the “Blood glucose level (average)” value in test [1] (time 6 h) was found to be 4.67 mmol/L; in test [1] (time 8 h), 5.11 mmol/L; in test [1] (time 12 h) it was 7.89 mmol/L; in test [1] (time 24 h), 15.09 mmol/L; in test [1] (time 36 h), 20.14 mmol/L; in test [1] (time 48 h) it was 24.21 mmol/L. Further, the “Blood glucose level (average)” value in test [1] (time 60 h) was found to be 23.76 mmol/L.

The term pIC50 denotes the negative decadic logarithm of the IC50, by convention in mol/L. Lower therefore signals a large IC50. Substance “Example 1: exendin-4-Cys (cysteine at C-terminal #40 site, SEQ ID NO: 1) bound with linear 5 kDa mPEG-MAL” showed a pIC50 with GLP-1 receptor (GLP-1R) (RIN-m5F cells, competition with 30 pM I-125 exendin-4 (9-39), 2 hours) of 8.98. Besides, the “activity (GLP-1 receptor affinity) better than Comparative example 1a (Lys^12-PEG5K-Ex4)” value with GLP-1 receptor (GLP-1R) (ratio of IC50 values) stood at 6 times. Moreover, the “activity (GLP-1 receptor affinity) better than Comparative example 1b (Lys^27-PEG5K-Ex4)” value with GLP-1 receptor (GLP-1R) (ratio of IC50 values) was “twice”. Moreover, in the test with GLP-1 receptor (GLP-1R) (ratio of IC50 values), the “activity (GLP-1 receptor affinity) better than Comparative example 2 (Nter-PEG5K-Ex4)” value worked out at 120 times. The “Blood glucose level (average)” value was 23.38 mmol/L in test [1] (time 0 h); 7.62 mmol/L in test [1] (time 0.5 h); 7.36 mmol/L in test [1] (time 1 h); 5.09 mmol/L in test [1] (time 2 h); 4.46 mmol/L in test [1] (time 3 h); 4.93 mmol/L in test [1] (time 4 h). Also, the “Blood glucose level (average)” value came to 5.73 mmol/L in test [1] (time 6 h), 9.04 mmol/L in test [1] (time 8 h), 16.2 mmol/L in test [1] (time 12 h) and 21.1 mmol/L in test [1] (time 24 h).
